From patent publication US20260245655A1, “METHODS FOR DETERMINING DRUG CANDIDATES” (MOSAIQUES DIAGNOSTICS AND THERAPEUTICS AG, priority 2023, published 2026)
“Also recorded” adds a separate entry of the source.

Experiments:
[1] = test system: BC cell lines: non-muscle invasive (RT112) and muscle invasive (T24, BFTC905, HT1376) cells; assay: in vitro screening of drug candidates on growth/proliferation of BC cell lines; assay type: cell-based; settings: for proliferation rate of the BC cells (dose response curves): FIG. 2; for cell growth of BC cells: in vitro, panel of BC cell lines RT112, T24, BFTC905, HT1376
Description: The impact of the drug candidates onto the malignant phenotype of BC cells was assessed in vitro in a panel of multi-origin BC cell lines representing different stages during disease progression. These included non-muscle invasive (RT112) and muscle invasive (T24, BFTC905, HT1376) cells.
Accordingly, these compounds were selected for further investigation, here providing the response curves for four different BC cell lines. Representative response curves of the seven compounds are presented in FIG. 2, along with the respective IC50s. A clear impact was observed on the proliferation of the BC cells for all seven compounds.
FIG. 2. The dose response curves of cephaeline (i-ii), exemestane (iii-iv) and 1,4 chrysenequinone (v-vi) in the BC cell lines RT112, T24, HT1376 and BFTC905. The dose response curves of fluvoxamine (vii), amiodarone (viii), isradipine (ix) and amodiaquine (x) in the RT112 cells are also provided.

BFTC905 xenograft = BFTC905 xenograft mouse model; assay type: in vivo, NOD/SCID male mice; settings: start three days after cell injection, observed at least 17 days, vs DMSO control
Description: In vivo testing of exemestane, cephaeline and 1,4 chrysenequinone was performed in xenograft mouse models. Particularly, the model was established after injecting […] BFTC905 cells subcutaneously into the tail base of NOD/SCID male mice. Male mice were selected for these experiments since males are more prone to develop BC. The treatments started three days after the injections of the cancer cells. The treatment scheme was 30 mg/kg/every 3rd day for exemestane, 5 mg/kg/daily for cephaeline and 5 mg/kg/daily for 1,4 chrysenequinone. As controls were used animals injected with DMSO diluted in PBS (at a final concentration similar to the one of the compounds).
FIG. 3. The impact of cephaeline, exemestane and 1,4 chrysenequinone in vivo in BFTC905 xenograft mouse models.

[2] = BC cell lines RT112, T24, HT1376 and BFTC905

SMILES | proliferation rate of the BC cells (dose response curves) ([1]; RT112 cells) | cell growth of BC cells [1] | proliferation rate of the BC cells (dose response curves) [1, 2] | impact on tumor establishment or growth (BFTC905 xenograft; 30 mg/kg/every 3rd day) | impact on tumor establishment or growth (BFTC905 xenograft; 5 mg/kg/daily)
COCCCC/C(=N\OCCN)c1ccc(C(F)(F)F)cc1 [fluvoxamine] | significantly decreased the proliferation rate | prevented cell growth at relatively low concentrations |  |  | 
CCN(CC)Cc1cc(Nc2ccnc3cc(Cl)ccc23)ccc1O [amodiaquine] | significantly decreased the proliferation rate | prevented cell growth at relatively low concentrations |  |  | 
C=C1C[C@@H]2[C@H](CC[C@]3(C)C(=O)CC[C@@H]23)[C@@]2(C)C=CC(=O)C=C12 [exemestane] |  | prevented cell growth at relatively low concentrations | significantly decreased the proliferation rate | clear impact on tumor establishment or growth; also recorded: significantly decreased tumor establishment or growth | 
CCCCc1oc2ccccc2c1C(=O)c1cc(I)c(OCCN(CC)CC)c(I)c1 [amiodarone] | significantly decreased the proliferation rate | prevented cell growth at relatively low concentrations |  |  | 
COC(=O)C1=C(C)NC(C)=C(C(=O)OC(C)C)C1c1cccc2nonc12 (centres unmarked) [isradipine] | significantly decreased the proliferation rate | prevented cell growth at relatively low concentrations |  |  | 
O=C1C=CC(=O)c2c1ccc1c2ccc2ccccc21 [1,4-chrysenequinone] |  | prevented cell growth at relatively low concentrations | significantly decreased the proliferation rate |  | no significant impact on tumour growth
